Structures can show the parent of a compound that is named as a salt. Where two headings read alike, the source gives them in different places.

One experiment concerns all PDE isoforms. The experiment is described as follows: HTS using all PDE isoforms as targets. In kind it is biochemical. The conditions noted are these: for inhibitory efficacy in all PDE isoforms: Example 18 screening, compared with cilostazol; for IC50: across PDE isoforms, FIG. 31. As to the method: Compounds included in the library of 800 FDA-approved drugs were diluted 1/4 from a concentration of 100 μM and dispensed into each well in 96-well plates, and mixed with a PDE reactant to allow a PDE reaction with the drug for 1 hour at a constant temperature.
The experiment was carried out in the same manner as used in screening of the FDA-approved drug library. […] Each of the screening library drugs were diluted 1/4 from 100 μM and dispensed into each well in 96-well plates, and mixed with a PDE reactant, followed by allowing a reaction between the drug and PDE for 1 hour for storage. After a stop solution was mixed with a AMP detection agent, the mixture was dispensed at 20 μl per well to allow a reaction for 10 minutes, followed by immediately measuring luminescence, and the experiment was performed according to a protocol provided by the kit used herein.
The first selection started with PDE3 as a target, and after candidate drugs were selected, all PDE isoforms were tested.

The subject of experiment [1] is mouse pericytes. The experiment can be described thus: Lysosome pH in bafilomycin A1-treated pericytes (LysoSensor, confocal microscope). In kind it is cell-based. The note with it: mouse pericytes treated with bafilomycin A1 alone. From the text: A system that can visualize changes in intracellular lysosome pH with LysoSensor, which is a pH-sensitive lysosomal dye, in mouse pericytes using a confocal microscope was established (refer to Example 6) to observe whether amlexanox (AMX) is involved in the pH change of lysosomes in cells.
FIG. 19 is a set of time-dependent confocal microscope images (left) of mouse pericytes when being treated with Bafilomycin A1, which is a vATPase inhibitor, and then stained with LysoSensor, and quantified data (right) thereof.
Here, the images on the left side of FIG. 19 are obtained by treating mouse pericytes with bafilomycin A1, which is a vATPase inhibitor, and analyzing the cells using LysoSensor over time by a confocal microscope (top), and by treating the bafilomycin A1-treated mouse pericytes with the finally selected amlexanox (AMX) and analyzing the cells using LysoSensor over time by a confocal microscope (bottom).

The test system of a further experiment is cathepsin B. The experiment can be described thus: Lysosomal function activity in astrocytes: degree of hydrolysis of cathepsin B. In kind it is cell-based, mouse. The note with it: mouse astrocytes treated with bafilomycin A1 alone. As to the method: (§1) Samples stained with enzymatic dyes such as cathepsin B and cathepsin L were administered into the cell culture to allow a reaction for 30 minutes, and changes in activity of lysosomes in cells were confirmed using a confocal microscope.
(§2) Astrocytes were stained with a fluorescence-tagged lysosomal protein, and the degrees of hydrolysis of cathepsin B and cathepsin L, which are lysosomal proteins, were analyzed.
(§3) FIG. 21 is a set of time-dependent confocal microscope images of mouse astrocytes, which are treated with bafilomycin A1, which is a vATPase inhibitor, to assess the degree of hydrolysis of cathepsin B (top) and cathepsin L (bottom).

Another experiment concerns cathepsin L. The experiment can be described thus: Lysosomal function activity in astrocytes: degree of hydrolysis of cathepsin L. In kind it is cell-based, mouse. The note with it: mouse astrocytes treated with bafilomycin A1 alone. As to the method:
as §1, §2, §3

For experiment [2], the system named is mouse pericytes. The experiment is described as follows: Amyloid beta aggregation in pericytes treated with cilostazol (confocal microscopy, western blotting). In kind it is cell-based. The note with it: 1 hour (confocal) and 24 hours (western blot). As to the method:
Each type of cell was cultured under the culture conditions, a cell culture was restored, followed by preparing a particulate fraction in a 50 mM Tris buffer. Proteins obtained from the cell culture developed in a SDS polyacrylamide gel, transferred to an immobilon-P membrane (Millipore, USA), and reacted with antibodies overnight. Next day, western blots were washed, reacted with peroxidase-linked secondary antibodies at room temperature for 1 hour, followed by staining bands with 4-chloro-1-naphthol. From the result of Example 1, PDE3, which is specifically highly expressed in pericytes, is selected as a target material. It was observed how the treatment of cilostazol known as a specific inhibitor of PDE3 affects amyloid beta accumulation. FIG. 5 is a set of confocal microscope images of mouse pericytes which are cultured and then treated with CTL (control), amyloid beta (Aβ) and cilostazol (amyloid beta+cilostazol; +cilo) for 1 hour, respectively. The graph on the right side of FIG. 5 is obtained by observing pericytes treated with CTL (control), amyloid beta (Aβ) and cilostazol (amyloid beta+cilostazol; +cilo) for 1 hour, and measuring the fluorescence intensities thereof. […] The graph on the right side of FIG. 6 is obtained by measuring an oligomer/actin expression level and a monomer/actin expression level in each group.
On the technique in general: In western blotting, separated proteins are transferred to a membrane and probed.

In another experiment the test system is mouse astrocytes. The experiment can be described thus: Lysosome pH change in astrocytes (LysoSensor Green DND-189, acridine orange). In kind it is cell-based. The conditions noted are these: amyloid beta-accumulated. As for the experimental part: For astrocyte culture, first, cerebral cortices (neocortices) were dissociated from murine fetuses (3 weeks old), and the obtained cortical tissue was divided into single cells. Subsequently, the single cells were seeded, and the cultured astrocytes were stored using a culture medium (DMEM 7% FBS+7% HS+100 U/mL penicillin+100 μg/mL […]) in a humidified incubator at 37[…] under a condition of 5% carbon dioxide. After DIV 10-14, cells grown to 80-90% or more confluence were used, and before an experiment, the cells were washed twice with warm MEM and used. New cells were cultured and used each time without passaging.
FIG. 8A is a set of images that visualize pH changes for 0 to 1 hour in respective groups of mouse astrocytes, which are stained with LysoSensor Green DND-189, and then treated with either amyloid beta (Aβ) or amyloid beta and cilostazol (Aβ+cilo).

For zafirlukast, in the experiment with all PDE isoforms, the “inhibitory efficacy in all PDE isoforms” value was “high inhibitory efficacy”.

For pifithrin, in the experiment on all PDE isoforms, the “inhibitory efficacy in all PDE isoforms” value is on record as “high inhibitory efficacy”.

Turning to `Oc1ccc(/C=C/c2cc(O)cc(O)c2)cc1` [resveratrol], the “inhibitory efficacy in all PDE isoforms” value with all PDE isoforms was “high inhibitory efficacy”.

For `Cc1nc(N)sc1-c1ccnc(Nc2ccc(N3CCOCC3)cc2)n1` [CYC116], the “inhibitory efficacy in all PDE isoforms” value with all PDE isoforms is given as “high inhibitory efficacy”.

For the molecule `Oc1cc(O)cc(/C=C/c2ccc(O)c(O)c2)c1` [piceathanol], in the experiment on all PDE isoforms, the “inhibitory efficacy in all PDE isoforms” value is listed as “high inhibitory efficacy”. Besides, the IC50 with all PDE isoforms (read-out: inhibition value of each isoform, lowest) is no less than 0.3 nM; in the experiment with all PDE isoforms (read-out: inhibition value of each isoform, maximum), no more than 5500 nM.

On to `Cc1ccc(NC(=O)c2ccc(CN3CCN(C)CC3)cc2)cc1Nc1nc(-c2cccnc2)cs1` [masitinib], for which the “inhibitory efficacy in all PDE isoforms” value with all PDE isoforms is “high inhibitory efficacy”.

Regarding `CO/C1=C\C(C)=C\[C@@H](C)[C@@H](O)[C@@H](C)C/C(C)=C/C=C/[C@H](OC)[C@@H]([C@@H](C)[C@@H](O)[C@H](C)[C@@]2(O)C[C@@H](O)[C@H](C)[C@@H](C(C)C)O2)OC1=O` [bafilomycin A1], the “lysosomal pH” value in the experiment with mouse pericytes [1] is listed as “increased”. Moreover, the “cathepsin B (lysosomal protein activity)” value with cathepsin B is reported as “decreased”. Further, the “cathepsin L (lysosomal protein activity)” value with cathepsin L is listed as “decreased”.

Take `CN1CCN(c2ccc3nc(-c4c(N)c5c(F)cccc5[nH]c4=O)[nH]c3c2)CC1` [dovitinib]: in the experiment with all PDE isoforms, the “inhibitory efficacy in all PDE isoforms” value is listed as “high inhibitory efficacy”.

On to `O=C(O)c1cccc(-c2noc(-c3ccccc3F)n2)c1` [ataluren], for which, in the experiment with all PDE isoforms, the “inhibitory efficacy in all PDE isoforms” value is on record as “high inhibitory efficacy”.

`Cc1ccc(NC(=O)c2ccc(CN3CCN(C)CC3)cc2)cc1Nc1nccc(-c2cccnc2)n1` [imatinib mesylate]: the “inhibitory efficacy in all PDE isoforms” value in the experiment with all PDE isoforms is on record as “high inhibitory efficacy”.

Turning to `Cc1nc(-c2ccc(OCC(C)C)c(C#N)c2)sc1C(=O)O` [febuxostat], in the experiment on all PDE isoforms, the “inhibitory efficacy in all PDE isoforms” value is listed as “high inhibitory efficacy”.

On to `COC1=CC(c2cc3ccccc3[nH]2)=N/C1=C\c1[nH]c(C)cc1C` [obatoclax mesylate], for which the “inhibitory efficacy in all PDE isoforms” value with all PDE isoforms is recorded as “high inhibitory efficacy”.

Consider `Oc1c(Cl)cc(Cl)c(Cl)c1Cc1c(O)c(Cl)cc(Cl)c1Cl` [hexachloropene], for which the “inhibitory efficacy in all PDE isoforms” value in the experiment on all PDE isoforms is “high inhibitory efficacy”.

Turning to `CCc1ccc(OCc2ccccc2C(=O)Nc2ccc3nc(C)cc(N)c3c2)cc1.Cl` [JTC-801], the “inhibitory efficacy in all PDE isoforms” value in the experiment on all PDE isoforms is on record as “high inhibitory efficacy”.

With `OCc1ccc(-c2ccc(-c3ccc(CO)s3)o2)s1` [RITA, 5,5′-(2,5-furandiyl)bis-2-thiophenemethanol], the “inhibitory efficacy in all PDE isoforms” value with all PDE isoforms is “high inhibitory efficacy”.

As to `O=C1CCc2cc(OCCCCc3nnnn3C3CCCCC3)ccc2N1` [cilostazol], the “amount of aggregated amyloid beta” value in the experiment with mouse pericytes [2] is reported as “significantly reduced”. Moreover, in the experiment with mouse astrocytes, the lysosomal function result is on record as “normalized” and the pH of lysosomes result is “acidified”.
